From patent publication US10696674B2, “Spirolactams as inhibitors of ROCK” (BRISTOL-MYERS SQUIBB COMPANY, priority 2016, dated 2020)

target: ROCK2 (Homo sapiens, UniProt O75116); test: ROCK2 assay (Caliper LABCHIP peptide phosphorylation); format: biochemical; conditions: 5 μM ATP, 1.5 μM peptide substrate
Protocol: The effectiveness of compounds of the present invention as ROCK inhibitors can be determined in a 30 μL assay containing 20 mM HEPES, pH 7.5, 20 mM MgCl2, 0.015% Brij-35, 4 mM DTT, 5 μM ATP and 1.5 μM peptide substrate (FITC-AHA-AKRRRLSSLRA-OH) (SEQ ID NO.1). Compounds were dissolved in DMSO so that the final concentration of DMSO was <2%, and the reaction was initiated with Rho kinase variants. After incubation, the reaction was terminated by the addition of EDTA and the phosphorylated and non-phosphorylated peptides separated using a LABCHIP® 3000 Reader (Caliper Life Sciences). […] Compounds were tested in dose-response format, and the inhibition of kinase activity was calculated at each concentration of compound. The inhibition data were fit using a curve-fitting program to determine the IC50; i.e., the concentration of compound required to inhibit 50% of kinase activity.
Representative Examples were tested in the ROCK2 assay described above and found having ROCK2 inhibitory activity. The ranges of the ROCK2 IC50 values are as follows: ROCK2 IC50: ++++ (<3 nM) +++ (3-30 nM) ++ (30-300 nM) + (300-2000 nM)

ROCK2, sequence (O75116 whole entry, species assumed): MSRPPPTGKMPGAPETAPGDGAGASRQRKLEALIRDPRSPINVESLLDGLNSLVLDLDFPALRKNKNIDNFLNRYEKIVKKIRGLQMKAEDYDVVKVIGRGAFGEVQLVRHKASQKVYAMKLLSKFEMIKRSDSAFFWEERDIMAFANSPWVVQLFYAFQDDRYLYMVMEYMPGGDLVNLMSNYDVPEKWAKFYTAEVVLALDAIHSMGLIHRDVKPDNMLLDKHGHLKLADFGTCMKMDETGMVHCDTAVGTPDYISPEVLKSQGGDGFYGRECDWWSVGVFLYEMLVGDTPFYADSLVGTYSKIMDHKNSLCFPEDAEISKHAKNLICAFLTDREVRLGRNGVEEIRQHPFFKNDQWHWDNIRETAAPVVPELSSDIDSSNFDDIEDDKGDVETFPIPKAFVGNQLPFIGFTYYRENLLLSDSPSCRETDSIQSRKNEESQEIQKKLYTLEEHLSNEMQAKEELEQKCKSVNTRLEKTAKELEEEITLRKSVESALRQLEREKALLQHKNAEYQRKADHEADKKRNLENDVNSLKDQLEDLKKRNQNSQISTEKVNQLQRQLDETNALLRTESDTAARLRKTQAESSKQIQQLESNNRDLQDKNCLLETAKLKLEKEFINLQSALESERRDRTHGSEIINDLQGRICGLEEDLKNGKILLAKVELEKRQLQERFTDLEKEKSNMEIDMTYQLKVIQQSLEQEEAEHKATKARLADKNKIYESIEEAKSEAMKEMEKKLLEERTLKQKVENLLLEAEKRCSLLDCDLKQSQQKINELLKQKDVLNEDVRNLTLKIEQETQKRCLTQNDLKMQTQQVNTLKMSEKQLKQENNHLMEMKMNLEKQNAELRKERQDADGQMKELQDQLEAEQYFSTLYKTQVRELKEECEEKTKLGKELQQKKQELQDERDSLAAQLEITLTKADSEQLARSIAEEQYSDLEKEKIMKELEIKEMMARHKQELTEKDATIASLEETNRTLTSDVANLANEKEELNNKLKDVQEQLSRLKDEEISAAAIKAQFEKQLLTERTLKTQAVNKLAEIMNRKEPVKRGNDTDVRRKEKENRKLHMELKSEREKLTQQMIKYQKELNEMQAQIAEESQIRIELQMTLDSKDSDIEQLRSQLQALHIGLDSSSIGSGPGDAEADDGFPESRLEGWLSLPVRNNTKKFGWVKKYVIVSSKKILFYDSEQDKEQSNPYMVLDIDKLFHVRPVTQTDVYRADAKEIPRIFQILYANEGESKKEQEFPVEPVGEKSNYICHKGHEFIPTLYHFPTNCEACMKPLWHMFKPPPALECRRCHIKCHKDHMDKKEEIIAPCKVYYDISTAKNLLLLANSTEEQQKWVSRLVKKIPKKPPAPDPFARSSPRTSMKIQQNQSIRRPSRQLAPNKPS

IC50 | Compound
3 to 30 nM | O=C1N(c2ccc(-c3cn[nH]c3)cc2)CCC12Cc1cc(F)ccc1N2 (racemic) [Example 7, 1′-(4-(1H-Pyrazol-4-yl)phenyl)-5-fluorospiro[indoline-2,3′-pyrrolidin]-2′-one]
< 3 nM | O=C1N(c2ccc(-c3cn[nH]c3)cc2)CCC12Cc1ccccc1O2 (racemic) [Example 29, 1′-(4-(1H-Pyrazol-4-yl)phenyl)-3H-spiro[benzofuran-2,3′-pyrrolidin]-2′-one]
< 3 nM | COc1cc(N2CCC3(Cc4ccccc4N3)C2=O)ccc1-c1cn[nH]c1 (racemic) [Example 32, 1′-(3-methoxy-4-(1H-pyrazol-4-yl)phenyl)spiro[indoline-2,3′-pyrrolidin]-2′-one]
< 3 nM | COc1cc(F)c2c(c1)NC1(CCN(c3ccc(-c4cn[nH]c4)cc3)C1=O)C2 (racemic) [Example 38, 1′-(4-(1H-Pyrazol-4-yl)phenyl)-4-fluoro-6-methoxyspiro[indoline-2,3′-pyrrolidin]-2′-one]
< 3 nM | O=C1N(c2ccc(-c3cn[nH]c3)cc2)CCC12Cc1ccccc1N2 (single isomer, unassigned) [Example 2, 1′-(4-(1H-Pyrazol-4-yl)phenyl)spiro[indoline-2,3′-pyrrolidin]-2′-one]
30 to 300 nM | O=C1N(c2ccc(-c3cn[nH]c3)cc2)CCC12Cc1ccccc1N2 (single isomer, unassigned) [Example 3, 1′-(4-(1H-Pyrazol-4-yl)phenyl)spiro[indoline-2,3′-pyrrolidin]-2′-one]
< 3 nM | COc1ccc2c(c1)NC1(CCN(c3ccc(-c4cn[nH]c4)cc3)C1=O)C2 (single isomer, unassigned) [Example 5, 1′-(4-(1H-Pyrazol-4-yl)phenyl)-6-methoxyspiro[indoline-2,3′-pyrrolidin]-2′-one]
3 to 30 nM | COc1ccc2c(c1)NC1(CCN(c3ccc(-c4cn[nH]c4)cc3)C1=O)C2 (single isomer, unassigned) [Example 6, 1′-(4-(1H-Pyrazol-4-yl)phenyl)-6-methoxyspiro[indoline-2,3′-pyrrolidin]-2′-one]
3 to 30 nM | O=C1N(c2ccc(-c3cn[nH]c3)cc2)CCC12Cc1cc(F)ccc1N2 (single isomer, unassigned) [Example 8, 1′-(4-(1H-Pyrazol-4-yl)phenyl)-5-fluorospiro[indoline-2,3′-pyrrolidin]-2′-one]
30 to 300 nM | O=C1N(c2ccc(-c3cn[nH]c3)cc2)CCC12Cc1cc(F)ccc1N2 (single isomer, unassigned) [Example 9, 1′-(4-(1H-Pyrazol-4-yl)phenyl)-5-fluorospiro[indoline-2,3′-pyrrolidin]-2′-one]
3 to 30 nM | O=C1N(c2ccc(-c3cn[nH]c3)cc2)CCC12Cc1ccc(F)cc1C2 (single isomer, unassigned) [Example 15, 1′-(4-(1H-Pyrazol-4-yl)phenyl)-5-fluoro-1,3-dihydrospiro[indene-2,3′-pyrrolidin]-2′-one]
3 to 30 nM | O=C1N(c2ccc(-c3cn[nH]c3)cc2)CCC12Cc1ccc(F)cc1C2 (single isomer, unassigned) [Example 16, 1′-(4-(1H-Pyrazol-4-yl)phenyl)-5-fluoro-1,3-dihydrospiro[indene-2,3′-pyrrolidin]-2′-one]
< 3 nM | COc1nc(N2CCC3(Cc4ccc(F)cc4C3)C2=O)ccc1-c1cn[nH]c1 (single isomer, unassigned) [Example 17, 5-Fluoro-1′-(6-methoxy-5-(1H-pyrazol-4-yl)pyridin-2-yl)-1,3-dihydrospiro[indene-2,3′-pyrrolidin]-2′-one]
3 to 30 nM | COc1nc(N2CCC3(Cc4ccc(F)cc4C3)C2=O)ccc1-c1cn[nH]c1 (single isomer, unassigned) [Example 18, 5-Fluoro-1′-(6-methoxy-5-(1H-pyrazol-4-yl)pyridin-2-yl)-1,3-dihydrospiro[indene-2,3′-pyrrolidin]-2′-one]
300 to 2000 nM | COc1ccc2c(c1)CC1(CCN(c3ccc(-c4cn[nH]c4)c(OC)n3)C1=O)C2 (single isomer, unassigned) [Example 19, 5-Methoxy-1′-(6-methoxy-5-(1H-pyrazol-4-yl)pyridin-2-yl)-1,3-dihydrospiro[indene-2,3′-pyrrolidin]-2′-one]
< 3 nM | COc1ccc2c(c1)CC1(CCN(c3ccc(-c4cn[nH]c4)c(OC)n3)C1=O)C2 (single isomer, unassigned) [Example 20, 5-Methoxy-1′-(6-methoxy-5-(1H-pyrazol-4-yl)pyridin-2-yl)-1,3-dihydrospiro[indene-2,3′-pyrrolidin]-2′-one]
< 3 nM | COc1ccc2c(c1)CC1(CCN(c3ccc(-c4cn[nH]c4)cc3)C1=O)C2 (single isomer, unassigned) [Example 22, 1′-(4-(1H-Pyrazol-4-yl)phenyl)-5-methoxy-1,3-dihydrospiro[indene-2,3′-pyrrolidin]-2′-one]

IC50 | Compound
30 to 300 nM | COc1ccc2c(c1)CC1(CCN(c3ccc(-c4cn[nH]c4)cc3)C1=O)O2 (single isomer, unassigned) [Example 25, 1′-(4-(1H-Pyrazol-4-yl)phenyl)-5-methoxy-3H-spiro[benzofuran-2,3′-pyrrolidin]-2′-one]
< 3 nM | COc1ccc2c(c1)CC1(CCN(c3ccc(-c4cn[nH]c4)cc3)C1=O)O2 (single isomer, unassigned) [Example 26, 1′-(4-(1H-Pyrazol-4-yl)phenyl)-5-methoxy-3H-spiro[benzofuran-2,3′-pyrrolidin]-2′-one]
30 to 300 nM | O=C1N(c2ccc(-c3cn[nH]c3)cc2)CCC12Cc1ccccc1O2 (single isomer, unassigned) [Example 30, 1′-(4-(1H-Pyrazol-4-yl)phenyl)-3H-spiro[benzofuran-2,3′-pyrrolidin]-2′-one]
< 3 nM | O=C1N(c2ccc(-c3cn[nH]c3)cc2)CCC12Cc1ccccc1O2 (single isomer, unassigned) [Example 31, 1′-(4-(1H-Pyrazol-4-yl)phenyl)-3H-spiro[benzofuran-2,3′-pyrrolidin]-2′-one]
30 to 300 nM | COc1cc(N2CCC3(Cc4ccccc4N3)C2=O)ccc1-c1cn[nH]c1 (single isomer, unassigned) [Example 33, 1′-(3-Methoxy-4-(1H-pyrazol-4-yl)phenyl)spiro[indoline-2,3′-pyrrolidin]-2′-one]
< 3 nM | COc1cc(N2CCC3(Cc4ccccc4N3)C2=O)ccc1-c1cn[nH]c1 (single isomer, unassigned) [Example 34, 1′-(3-methoxy-4-(1H-pyrazol-4-yl)phenyl)spiro[indoline-2,3′-pyrrolidin]-2′-one]
300 to 2000 nM | COc1cc(F)c2c(c1)NC1(CCN(c3ccc(-c4cn[nH]c4)cc3)C1=O)C2 (single isomer, unassigned) [Example 39, 1′-(4-(1H-Pyrazol-4-yl)phenyl)-4-fluoro-6-methoxyspiro[indoline-2,3′-pyrrolidin]-2′-one]
< 3 nM | COc1cc(F)c2c(c1)NC1(CCN(c3ccc(-c4cn[nH]c4)cc3)C1=O)C2 (single isomer, unassigned) [Example 40, 1′-(4-(1H-Pyrazol-4-yl)phenyl)-4-fluoro-6-methoxyspiro[indoline-2,3′-pyrrolidin]-2′-one]
< 3 nM | O=C1N(c2ccc(-c3cn[nH]c3)cc2)CCC12Cc1ccc(OCC3CC3)cc1N2 (single isomer, unassigned) [Example 42, 1′-(4-(1H-Pyrazol-4-yl)phenyl)-6-(cyclopropylmethoxy)spiro[indoline-2,3′-pyrrolidin]-2′-one]
30 to 300 nM | O=C1N(c2ccc(-c3cn[nH]c3)cc2)CCC12Cc1ccc(OCC3CC3)cc1N2 (single isomer, unassigned) [Example 43, 1′-(4-(1H-Pyrazol-4-yl)phenyl)-6-(cyclopropylmethoxy)spiro[indoline-2,3′-pyrrolidin]-2′-one]
< 3 nM | COc1ccc2c(c1)NC1(CCN(c3ccc(-c4cn[nH]c4)cc3)C1=O)C2 (stereo not shown) [Example 4, 1′-(4-(1H-Pyrazol-4-yl)phenyl)-6-methoxyspiro[indoline-2,3′-pyrrolidin]-2′-one]
< 3 nM | COc1nc(N2CCC3(Cc4ccccc4N3)C2=O)ccc1-c1cn[nH]c1 (stereo not shown) [Example 10, 1′-(6-methoxy-5-(1H-pyrazol-4-yl)pyridin-2-yl)spiro[indoline-2,3′-pyrrolidin]-2′-one]
3 to 30 nM | O=C1N(c2ccc(-c3cn[nH]c3)cc2)CCC12Cc1ccccc1C2 [Example 11, 1′-(4-(1H-Pyrazol-4-yl)phenyl)-1,3-dihydrospiro[indene-2,3′-pyrrolidin]-2′-one]
30 to 300 nM | COc1ccc2c(c1)CC1(CCN(c3ccc(-c4cn[nH]c4)cc3)C1=O)N2 (stereo not shown) [Example 12, 1′-(4-(1H-Pyrazol-4-yl)phenyl)-5-methoxyspiro[indoline-2,3′-pyrrolidin]-2′-one]
3 to 30 nM | O=C1N(c2ccc(-c3ccc4[nH]ncc4c3)cc2)CCC12Cc1ccccc1N2 (stereo not shown) [Example 13, 1′-(4-(1H-Indazol-5-yl)phenyl)spiro[indoline-2,3′-pyrrolidin]-2′-one]
30 to 300 nM | COc1ccc2c(c1)N(C)C1(CCN(c3ccc(-c4cn[nH]c4)cc3)C1=O)C2 (stereo not shown) [Example 14, 1′-(4-(1H-Pyrazol-4-yl)phenyl)-6-methoxy-1-methylspiro[indoline-2,3′-pyrrolidin]-2′-one]
< 3 nM | COc1nc(N2CCC3(Cc4ccccc4C3)C2=O)ccc1-c1cn[nH]c1 [Example 23, 1′-(6-Methoxy-5-(1H-pyrazol-4-yl)pyridin-2-yl)-1,3-dihydrospiro[indene-2,3′-pyrrolidin]-2′-one]
